Like-named read-outs stand apart in the source and are kept apart here.
Key:
castrated male rats = conditions: cited from earlier work
testosterone [1] = conditions: 1 mg/kg i.v., cited from earlier work
2OHE1/16OHE1 = test: Phase I: urinary estrone metabolites 2OHE1/16OHE1; format: in vivo, human; conditions: for amount of urinary 16OHE1 relative to day 1: female, human, in vivo
Text: (§1) A brief evaluation of the results follows:

[2] = system: ovariectomized female rats; test: Lordosis behavior test (lordosis quotient) in ovariectomized female rats; format: in vivo, rat
Method: Thus, lordosis was selected as an indicator of restoration of female sexual function in ovariectomized female rats and an appropriate indicator for alleviating symptoms of female sexual dysfunction.
Adult female Sprague Dawley rats (220-250 g) from Charles River Hungary Ltd., Godollo, Hungary, were used. Animals were kept in community cages (4 animals/cage) in a climate-controlled room (23±2° C., 50-60% humidity), with a 14 hour light, 10 hour dark cycle of artificial lighting, using reversed light/dark cycle. Food and water were available ad libitum.
After a minimum five-day acclimatization period, animals were ovariectomized under ether anesthesia, then were left to recover for 3 weeks before testing (reconvalescence). All animals were treated in accordance with the guidelines of the European Communities Council Directive (86/609/EEC) and studies were permitted by the Institutional Animal Care Commission.
Estradiol benzoate and progesterone were obtained from Sigma Chemical Co. Inc., Budapest, Hungary. […] E2-CDS as a 3% complex with HPβCD (E2-CDS-CD) was dissolved in distilled water and diluted with 27% HPβCD solution. E2-CDS-CD was synthesized by Alchem Laboratories Corporation, Alachua, Fla., US.
(§2) After recovery from surgery, ovariectomized female rats were divided into four groups and treated once a day for five days intravenously, via a bolus injection through the tail vein, as follows: (1) control, 27% HPβCD solution; (2) 0.003 mg/kg E2-CDS dissolved in 27% HPβCD solution; (3) 0.01 mg/kg E2-CDS dissolved in 27% HPβCD solution; and (4) 0.03 mg/kg E2-CDS dissolved in 27% HPβCD solution. A minimal number of ovariectomized (8 to 12) females were used per group. Intravenous treatments either with E2-CDS or HPβCD (controls) were carried out daily for 5 days beginning 2 days prior to the first day of behavior observations, in a volume of 0.05 ml/100 g body weight.
The behavior test was conducted in a plexiglass observation cage during the dark cycle. During behavioral observations, only a dim red light was on.
An experienced and active male rat was placed in the arena 5 minutes prior to the female. […] The lordosis quotient (LQ) expresses the estrogen effect on sexual receptivity and was calculated as follows: LQ=100×number of lordoses/10 mounts The observation of the sexual behavior of each female was carried out, in the case of E2-CDS, every day for 22 days; in the case of EB, investigations were carried out every day for 10 days. […] Citrated blood samples were taken by retro-orbital sinus puncture under light ether anesthesia. The samples were stored at 4° C. for one hour, then centrifuged at 1000 g for 10 minutes. Plasma was separated and stored at −80° C. until assayed. Plasma LH concentrations from individual samples were measured by double antibody radioimmunoassay kits obtained from Amersham Pharmacia Biotech, Rome, Italy. […] The limit of detection was 15 pg/ml.
Behavioral changes were analyzed using the Mann-Whitney U test (Siegel, Nonparametric Statistics for the Behavioral Sciences, New York; McGraw-Hill Book Company, Inc., 1956). The Fisher exact test was used for percentage comparisons (Zar, Biostatistical Analysis, Prentice Hall, Inc., Englewood Cliffs, N.J., 1974). Serum LH data were analyzed for each time and treatment group by analysis of variance (ANOVA) followed by Bonferroni posthoc test.

LH [3] = conditions: cited from earlier work
testosterone [4] = test: Phase I repeated buccal dosing in postmenopausal women: serum testosterone; format: in vivo, human; conditions: for testosterone level exceeding baseline: 72 hours after last dose
Method: (§3) Even more recently, in a Phase I clinical study of postmenopausal women, two different administration regimens of a 2.86 mg E2-CDS buccal delivery tablet were evaluated for safety and effects on hormone levels. The subjects were 12 healthy postmenopausal volunteers, divided into two groups of six. In Group A, women were dosed once daily for 10 days (10 doses); in Group B, women were dosed once every other day for 13 days (7 doses).

LH [5] = test: Plasma LH by radioimmunoassay in ovariectomized female rats; format: in vivo, rat; conditions: 0.003, 0.01 and 0.03 mg/kg i.v. daily for 5 days
Method: as §2
An experienced and active male rat was placed in the arena 5 minutes prior to the female. […] The lordosis quotient (LQ) expresses the estrogen effect on sexual receptivity and was calculated as follows: LQ=100×number of lordoses/10 mounts The observation of the sexual behavior of each female was carried out, in the case of E2-CDS, every day for 22 days; in the case of EB, investigations were carried out every day for 10 days. […] Citrated blood samples were taken by retro-orbital sinus puncture under light ether anesthesia. […] Plasma LH concentrations from individual samples were measured by double antibody radioimmunoassay kits obtained from Amersham Pharmacia Biotech, Rome, Italy. […]

morphine-dependent rats = conditions: cited from earlier work
LH [6] = conditions: cited from earlier work; remark: listed apart in the source
postmenopausal women = test: Phase I: safety and tolerance (adverse events); conditions: 2.86 mg buccal, both regimens
Method: as §3

[7] = female, human, in vivo, 2.5 mg
Text: as §1
One explanation for this difference might be the difference in the dissolution (and buccal residence) time of the two formulations used in these two different studies.

LH [8] = conditions: cited from earlier work; remark: listed apart in the source
[9] = 0.01 mg/kg i.v. once a day for 5 days
[10] = 0.03 mg/kg i.v. once a day for 5 days

Compound: CN1C=CCC(C(=O)O[C@H]2CC[C@H]3[C@@H]4CCc5cc(O)ccc5[C@H]4CC[C@]23C)=C1 [E2-CDS, 17β-[(1-methyl-1,4-dihydro-3-pyridinyl)carbonyloxy]estra-1,3,5(10)-trien-3-ol]
- masculine sexual behavior (castrated male rats; 3 mg/kg i.v. (Anderson '911 patent)): stimulated mounting behavior, increased intromission behavior and reduced both mount latency and intromission latency
- ejaculatory behavior (castrated male rats; 3 mg/kg single tail vein injection in DMSO (Anderson 1987)): ejaculatory behavior was not restored
- duration of improved masculine sexual behavior (castrated male rats; single i.v. dose of 3 mg/kg (Anderson '911 patent)): 28 days
- decrease of serum testosterone levels (testosterone [1]; one day after treatment): 99%
- suppression of serum testosterone (testosterone [1]; through 14 days post-treatment): more than 96%
- increase of ratio of 2OHE1 to 16OHE1 during treatment (2OHE1/16OHE1; Group A): 63.6%
- increase of ratio of 2OHE1 to 16OHE1 during treatment (2OHE1/16OHE1; Group B): 54.7%
- difference of mean ratios, urine (2OHE1/16OHE1; day 10-1, Group A): 0.15
- difference of mean ratios, urine (2OHE1/16OHE1; day 13-1, Group B): 0.05
- amount of urinary 16OHE1 relative to day 1 (2OHE1/16OHE1; 10 day): 2.48 times
- amount of urinary 16OHE1 relative to day 1 (2OHE1/16OHE1; 13 day): 1.26 times
- lordosis quotient, effect ([2]; 0.003 mg/kg i.v. once a day for 5 days): slightly enhanced the lordosis quotient, but these effects were not statistically significant
- duration of LQ increase (after day 11 not statistically significant) [2, 9]: lasted till day 15
- lordosis quotient LQ, effect [2, 9]: significantly enhanced the LQ from day 5 to day 11
- duration of LQ enhancement [2, 10]: from day 3 to day 18
- lordosis quotient LQ, effect [2, 10]: significantly enhanced
- duration of LH suppression (LH [3]; 0.1 mg/kg i.v. in 20% (w/v) HPβCD, castrated female rats (Brewster 1988)): 18 days
- LH inhibition (LH [3]; 0.5 mg/kg single i.v., day 12 (Estes 1987, Experiment 3)): heterogeneous results
- LH compared to equimolar estradiol 17-valerate (LH [3]; 0.5 mg/kg single i.v., day 12 or 18 (Estes 1987, Experiment 4)): significantly decreased by E2-CDS compared to estradiol valerate
- plasma LH (LH [3]; 1.0 mg/kg i.v. single and multiple weekly doses (Rahimy 1991)): significantly suppressed for single and multiple doses
- serum LH decrease compared to vehicle (LH [3]; 2 mg/kg single i.v., day 12 (Estes 1987, Experiment 3)): 75%
- serum LH decrease compared to vehicle (LH [3]; 5 mg/kg single i.v., day 12 (Estes 1987, Experiment 3)): 91%
- reduction in serum LH (LH [3]; multiple i.v. injections (7, every two days) 10 to 333 μg/kg (Anderson 1988)): 32-76%
- reduction in serum LH (LH [3]; single i.v. dose 10 μg/kg (Anderson 1988)): no effect
- reduction in serum LH (LH [3]; single i.v. dose 33 to 333 μg/kg, 2 days before sacrifice (Anderson 1988)): 39-52%
- testosterone level exceeding baseline (testosterone [4]; Group A): 14%
- testosterone level exceeding baseline (testosterone [4]; Group B): 28%
- time to reach minimum testosterone level (testosterone [4]; day 1, Group A): 6.5 ± 11.7 h
- mean testosterone AUC24 lower than baseline AUC24 (testosterone [4]; day 1, Group B): 23.0%
- time to reach minimum testosterone level (testosterone [4]; day 1, Group B): 7.3 ± 11.3 h
- plasma LH levels, effect (LH [5]): suppressed at all dosage levels
- naloxone-induced rise in TST (morphine-dependent rats; 1 mg/kg i.v. once weekly for three weeks, tested one week after last injection): significantly attenuated
- attenuation of naloxone-induced rise in TST (morphine-dependent rats; single 1 mg/kg i.v., tested one week after injection): 25%
- effects on plasma LH (LH [6]; 1280 μg single i.v. dose group): substantial and sustained decreases
- effects on plasma LH (LH [6]; 10-40 μg single i.v. dose group): Minimal effects
- effects on plasma LH (LH [6]; 80-640 μg single i.v. dose group): threshold effects
- time through which LH was lowered in a clinically meaningful way (LH [6]; single 1280 μg i.v. dose, one post-menopausal volunteer): 96 h
- severity of adverse events (postmenopausal women): All AEs were mild or moderate, no serious AE was observed
- Tmax of E2 [7]: 2 h
- average Cmax of E2 [7]: 0.1534 ng/mL
- LH levels (LH [8]; 3 mg/kg single i.v., 12, 18 and 24 days post-treatment): remained very significantly reduced
- duration of suppression of LH (LH [8]; castrated male rats, 3 mg/kg i.v. studies): at least 24 days
